# According to patent US8669252B2, “Prolylcarboxypeptidase inhibitors” (Merck Sharp & Dohme Corp., priority 2010, dated 2014):
# Assays:
# human PrCP = human PrCP (Homo sapiens (Human), UniProt P42785); assay: biochemical
# Protocol: The assay was performed using a Hamilton Star liquid handling workstation. The assay employed the internally quenched fluorescent substrate (1S)-1-carboxy-5-[(2,4-dinitrophenyl)amino]pentyl N-[(7-methoxy-2-oxo-2H-chromen-4-yl)acetyl]-L-alanyl-L-prolinate prepared in house.
# The assay also contained 2% DMSO used to solubilize the substrate and inhibitor. Inhibitors were prepared in 100% DMSO and serial diluted (in 100% DMSO) to generate 11 point titration curves. Either 39 uL of human or mouse PrCP enzyme was added to the wells of the assay plate, followed by a 1 uL addition of the serially diluted inhibitor and mixed three times using a 30 uL mix volume. The reaction was initiated by the addition of 10 uL substrate and mixed three times using a 30 uL mix volume. […] IC50 values were calculated by comparing the resulting rates of reaction of the inhibited and control initial velocities.
# The enzymes were diluted in a mixture of 10 mM NaOAc (pH 5.5)/100 mM NaCl buffer containing 25 ug/mL bovine serum albumin that had been warmed to 37° C. in a water bath. The PrCP inhibitor test compounds were plated in 100% DMSO with a highest concentration of 500 uM. There were 12 dilution points for each compound tested including a blank with DMSO only. […]
# [1] = in vivo; cited from earlier work
# rats = details: intracerebroventricular administration to rats; cited from earlier work
# [2] = test system: obese, leptin deficient mice; details: systemic administration to obese; cited from earlier work
# human PrCP, sequence (P42785 46-496): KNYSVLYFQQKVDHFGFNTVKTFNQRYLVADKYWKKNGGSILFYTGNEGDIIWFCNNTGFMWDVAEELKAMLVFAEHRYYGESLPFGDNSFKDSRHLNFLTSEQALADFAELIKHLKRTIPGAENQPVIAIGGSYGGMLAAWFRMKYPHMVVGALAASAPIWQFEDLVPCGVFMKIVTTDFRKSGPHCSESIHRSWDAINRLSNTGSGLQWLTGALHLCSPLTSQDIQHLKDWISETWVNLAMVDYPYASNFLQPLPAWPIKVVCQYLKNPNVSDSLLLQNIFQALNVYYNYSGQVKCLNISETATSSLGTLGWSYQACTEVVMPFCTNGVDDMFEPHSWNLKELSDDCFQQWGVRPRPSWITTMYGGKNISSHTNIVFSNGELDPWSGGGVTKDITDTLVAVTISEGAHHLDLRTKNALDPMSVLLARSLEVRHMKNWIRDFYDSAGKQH
Compound,"weight loss, of body weight for drug compared to placebo [1]",also measured
"O=C(NC(c1ccc(F)cc1)c1ccc(F)cc1)C1CCC(N2CCOCC2)CC1c1ccc(F)cc1 (single isomer, unassigned) [Example 4, N-[bis(4-fluorophenyl)methyl]-2-(4-fluorophenyl)-4-(morpholin-4-yl)cyclohexanecarboxamide]",–,IC50 (human PrCP): 2.1 nM
CCN[C@@H](C)Cc1cccc(C(F)(F)F)c1 [dexfenfluramine],5%-10%,–
CCCCCCCCCCC[C@@H](C[C@@H]1OC(=O)[C@H]1CCCCCC)OC(=O)[C@H](CC(C)C)NC=O [orlistat],5%-10%,–
CC(C)(N)Cc1ccccc1 [phentermine],5%-10%,–
CC(C)CC(N(C)C)C1(c2ccc(Cl)cc2)CCC1 (stereo not shown) [sibutramine],5%-10%,–
t-butyl carbamate-prolyl prolinal [BPP],–,overnight food intake (rats): suppression of overnight food intake; overnight food intake [2]: suppression of overnight food intake
